Holding throughout (format): biochemical
For one assay, the target named is T1, Aurora B (Homo sapiens, UniProt Q96GD4).
T1 construct: Active Aurora B enzyme (recombinant residues 1-344)
In words: Aurora B enzyme inhibition (time-resolved fluorescence, histone H3 peptide). Conditions: 1 mM ATP. The protocol:
To determine Aurora B activity of representative compounds of the invention, Active Aurora B enzyme (recombinant residues 1-344) and INCENP (recombinant GST fusion protein (Upstate)) were incubated in wells of a 384 well plate with biotinylated histone H3 peptide residues 1-21 (Upstate), 1 mM ATP, and various concentrations of inhibitors in a HEPES buffer, pH 7.4 containing MgCl2, sodium othrovanadate, and Triton X-100. After 1 hour, the reaction was stopped with EDTA and anti-phospho-histone H3 Europium Cryptate (Cis-Bio) and SA-APC (Phycolink, Prozyme) were added to detect the phosphopeptide. The amount of phosphorylation was determined by the time-resolved fluorescence ratio of signals at 665 nm and 615 nm. The IC50's were calculated by an exponential fit of the inhibition values with the inhibitor concentrations using Assay Explorer software.

The target of another assay is T2, Aurora A (Homo sapiens, UniProt O14965).
T2 sequence (O14965 1-403): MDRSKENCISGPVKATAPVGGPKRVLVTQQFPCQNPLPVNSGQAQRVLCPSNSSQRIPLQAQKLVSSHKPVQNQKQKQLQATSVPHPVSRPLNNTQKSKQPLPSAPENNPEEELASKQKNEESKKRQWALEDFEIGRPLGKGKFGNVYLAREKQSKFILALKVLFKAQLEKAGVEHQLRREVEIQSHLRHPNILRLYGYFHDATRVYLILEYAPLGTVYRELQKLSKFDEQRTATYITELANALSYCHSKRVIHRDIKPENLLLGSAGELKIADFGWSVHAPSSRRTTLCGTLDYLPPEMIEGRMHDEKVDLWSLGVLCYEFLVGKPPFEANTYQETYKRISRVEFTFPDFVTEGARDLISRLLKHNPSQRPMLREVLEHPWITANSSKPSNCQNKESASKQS
As to the kind of experiment: Aurora A enzyme inhibition (time-resolved fluorescence, STK substrate-2). Conditions: 1 mM ATP. The protocol:
To determine Aurora A and C activity of representative compounds of the invention, Active Aurora A or C enzyme was incubated in wells of a 384 well plate with biotinylated STK substrate-2 (Upstate), 1 mM ATP, and various concentrations of inhibitors in a Hepes buffer, pH 7.4 containing MgCl2, sodium othrovanadate, and Triton X-100. After 1 hour, the reaction was stopped with EDTA and anti-phospho-STK antibody Europium Cryptate (Upstate) and SA-XL665 (Upstate) were added to detect the phosphopeptide. The amount of phosphorylation was determined by the time-resolved fluorescence ratio of signals at 665 nm and 615 nm. The IC50s were calculated by an exponential fit of the inhibition values with the inhibitor concentrations using Assay Explorer software.

A further assay has as its target KDR (Homo sapiens, UniProt P35968). As to the kind of experiment: KDR HTRF in vitro kinase assay. On the set-up: purified enzyme (His6-KDR 789-1354, MW 63 kD); His6 (N). As to conditions: 1 mM ATP; read-out: KDR enzyme inhibition data (Ki). As to the method: To determine the activity of the various kinases, a homogenous time-resolved fluorescence (HTRF) in vitro kinase assay was used. (Mathis, G., HTRF® Technology. J Biomol Screen, 1999. 4(6): p. 309-314; Alfred J. Kolb, Paul V. Kaplita, David J. Hayes, Young-Whan Park, Christine Pernell, John S. Major and Gerard Mathis, Drug Discovery Today, 1998, 3, 333-342.)
For example for KDR, 7 ng/well of purified enzyme (His6-KDR 789-1354, MW 63 kD) was mixed with 0.5 μM N-biotinylated substrate (Biotin-Ahx-AEEEYFFLA-amide (SEQ. ID. 1)), various concentrations of inhibitor in reaction buffer (50 mM HEPES, pH 7.1, 10 mM MgCl2, 2 mM MnCl2, 0.1% BSA and 1 mM DTT, 40 L final volume), ATP (1 mM final conc.) in a black 384-well plate. After 60 minutes incubation at room temperature, the reaction was quenched by addition of a buffered EDTA solution (final approximate concentrations: 30 mM EDTA, 0.1% BSA, 0.1% Triton X-100 and 0.24M KF) and a solution of revelation agents (to give 0.084 ng/well streptavidin-XL-665 (Cis-Bio) and 6.5 ng/well antiphsophotyrosine mAb PT66-K Europium kryptate) was added to the reaction mixture. The quenched reaction was allowed to stand at room temperature for 3 hours and was then read in a time-resolved fluorescence detector (InVision, Perkin-Elmer) at 620 nm and 665 nm sequentially with excitation. The ratio between the signal of 620 nm and 665 nm was used in the calculation of the IC50.
A general note: TR-FRET usually uses a lanthanide donor and a delayed reading to cut background.

Sequence of KDR (P35968 789-1354): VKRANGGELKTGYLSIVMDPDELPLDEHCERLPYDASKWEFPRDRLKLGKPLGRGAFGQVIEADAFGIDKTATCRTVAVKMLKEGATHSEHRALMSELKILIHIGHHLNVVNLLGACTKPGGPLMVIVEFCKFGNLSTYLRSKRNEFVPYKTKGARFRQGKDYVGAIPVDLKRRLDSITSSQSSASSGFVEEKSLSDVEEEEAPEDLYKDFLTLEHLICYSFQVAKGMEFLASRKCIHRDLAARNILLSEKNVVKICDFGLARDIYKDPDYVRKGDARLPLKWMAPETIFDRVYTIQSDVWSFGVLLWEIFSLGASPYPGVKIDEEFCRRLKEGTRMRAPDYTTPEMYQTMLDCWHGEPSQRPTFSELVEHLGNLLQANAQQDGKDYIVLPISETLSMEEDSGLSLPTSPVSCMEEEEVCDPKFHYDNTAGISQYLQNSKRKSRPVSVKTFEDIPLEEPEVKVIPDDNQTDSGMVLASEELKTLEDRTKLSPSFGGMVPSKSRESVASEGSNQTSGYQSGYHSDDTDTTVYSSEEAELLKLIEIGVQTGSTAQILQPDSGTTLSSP
T1 sequence (Q96GD4 whole entry, the tested form may be a part): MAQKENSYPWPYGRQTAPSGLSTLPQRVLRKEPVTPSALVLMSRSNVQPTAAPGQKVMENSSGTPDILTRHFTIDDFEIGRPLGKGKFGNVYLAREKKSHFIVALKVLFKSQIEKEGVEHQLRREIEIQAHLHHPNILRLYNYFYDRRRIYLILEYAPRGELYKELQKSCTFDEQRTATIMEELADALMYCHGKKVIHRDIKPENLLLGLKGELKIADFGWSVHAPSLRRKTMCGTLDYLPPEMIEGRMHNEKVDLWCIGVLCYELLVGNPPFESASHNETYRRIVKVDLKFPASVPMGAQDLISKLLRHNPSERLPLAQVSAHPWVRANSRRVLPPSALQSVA
T1 sequence (Q9NQS7 826-918 partner limits assumed): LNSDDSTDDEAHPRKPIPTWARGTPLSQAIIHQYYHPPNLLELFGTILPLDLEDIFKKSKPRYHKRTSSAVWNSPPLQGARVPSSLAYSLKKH

In the case of “5-chloro-N^2-(1H-indazol-5-yl)-N^2-{1-[2-(pyrrolidin-1-yl)ethyl]-1H-pyrazol-4-yl}pyrimidine-2,4-diamine [Example 177]”, the Ki at Aurora B, on Aurora A and on KDR was less than 0.1 µM throughout.

On to `Cn1cc(Nc2ncc(F)c(N[C@@H]3C[C@H]4CC[C@@H]3C4)n2)cn1.Cn1cc(Nc2ncc(F)c(N[C@H]3C[C@@H]4CC[C@H]3C4)n2)cn1` (mixture of isomers) [Example 3, N^4-[(1S,2S,4R)-bicyclo[2.2.1]hept-2-yl]-5-fluoro-N^2-(1-methyl-1H-pyrazol-4-yl)pyrimidine-2,4-diamine and N^4-[(1R,2R,4S)-bicyclo[2.2.1]hept-2-yl]-5-fluoro-N^2-(1-methyl-1H-pyrazol-4-yl)pyrimidine-2,4-diamine], for which the Ki at Aurora B was 0.1 to 1 µM; on Aurora A, 1 to 5 µM; on KDR, 1 to 5 µM.

On to `Cn1cc(Nc2ncc(F)c(N[C@@H]3CCC[C@@H]3C(N)=O)n2)cn1.Cn1cc(Nc2ncc(F)c(N[C@H]3CCC[C@H]3C(N)=O)n2)cn1` (mixture of isomers) [Example 4, (1S,2R)-2-({5-fluoro-2-[(1-methyl-1H-pyrazol-4-yl)amino]pyrimidin-4-yl}amino)cyclopentanecarboxamide and (1R,2S)-2-({5-fluoro-2-[(1-methyl-1H-pyrazol-4-yl)amino]pyrimidin-4-yl}amino)cyclopentanecarboxamide], for which the Ki on Aurora B is 0.1 to 1 µM; on Aurora A, more than 5 µM; at KDR, more than 5 µM.

With `CCOC(=O)[C@@H]1[C@H](Nc2nc(Nc3cnn(C)c3)ncc2F)[C@H]2C=C[C@@H]1C2.CCOC(=O)[C@H]1[C@@H](Nc2nc(Nc3cnn(C)c3)ncc2F)[C@@H]2C=C[C@H]1C2` (mixture of isomers) [Example 7, ethyl(1S,2S,3R,4R)-3-({5-fluoro-2-[(1-methyl-1H-pyrazol-4-yl)amino]pyrimidin-4-yl}amino)bicyclo[2.2.1]hept-5-ene-2-carboxylate and ethyl(1R,2R,3S,4S)-3-({5-fluoro-2-[(1-methyl-1H-pyrazol-4-yl)amino]pyrimidin-4-yl}amino)bicyclo[2.2.1]hept-5-ene-2-carboxylate], the inhibitory constant (Ki) is 0.1 to 1 µM on Aurora B, more than 5 µM on Aurora A and more than 5 µM at KDR.

In the case of `CC(O)Cn1cc(Nc2ncc(F)c(NC3C4C=CC(C4)C3C(N)=O)n2)cn1` (mixture of isomers) [Example 15, (1R,2R,3S,4S)-3-{[5-fluoro-2-({1-[(2R)-2-hydroxypropyl]-1H-pyrazol-4-yl}amino)pyrimidin-4-yl]amino}bicyclo[2.2.1]hept-5-ene-2-carboxamide and (1S,2S,3R,4R)-3-{[5-fluoro-2-({1-[(2R)-2-hydroxypropyl]-1H-pyrazol-4-yl}amino)pyrimidin-4-yl]amino}bicyclo[2.2.1]hept-5-ene-2-carboxamide], the Ki is less than 0.1 µM at Aurora B, 0.1 to 1 µM at Aurora A and 1 to 5 µM at KDR.

For `C[C@@H](O)Cn1cc(Nc2ncc(F)c(N[C@@H]3[C@H]4CC[C@H](C4)[C@@H]3C(N)=O)n2)cn1.C[C@@H](O)Cn1cc(Nc2ncc(F)c(N[C@H]3[C@@H]4CC[C@@H](C4)[C@H]3C(N)=O)n2)cn1` (mixture of isomers) [Example 16, (1S,2R,3S,4R)-3-{[5-fluoro-2-({1-[(2R)-2-hydroxypropyl]-1H-pyrazol-4-yl}amino)pyrimidin-4-yl]amino}bicyclo[2.2.1]heptane-2-carboxamide and (1R,2S,3R,4S)-3-{[5-fluoro-2-({1-[(2R)-2-hydroxypropyl]-1H-pyrazol-4-yl}amino)pyrimidin-4-yl]amino}bicyclo[2.2.1]heptane-2-carboxamide], the Ki on Aurora B lay within 0.1 to 1 µM; at Aurora A, 0.1 to 1 µM; on KDR, 1 to 5 µM.

Regarding `CN(C)CCn1cc(Nc2ncc(Cl)c(N[C@@H]3[C@H](C(N)=O)[C@H]4C=C[C@@H]3C4)n2)cn1.CN(C)CCn1cc(Nc2ncc(Cl)c(N[C@H]3[C@@H](C(N)=O)[C@@H]4C=C[C@H]3C4)n2)cn1` (mixture of isomers) [Example 33, (1S,2S,3R,4R)-3-{[5-chloro-2-({1-[2-(dimethylamino)ethyl]-1H-pyrazol-4-yl}amino)pyrimidin-4-yl]amino}bicyclo[2.2.1]hept-5-ene-2-carboxamide and (1R,2R,3S,4S)-3-{[5-chloro-2-({1-[2-(dimethylamino)ethyl]-1H-pyrazol-4-yl}amino)pyrimidin-4-yl]amino}bicyclo[2.2.1]hept-5-ene-2-carboxamide], the Ki on Aurora B, at Aurora A and at KDR was less than 0.1 µM in each case.

As for `NC(=O)[C@@H]1[C@H](Nc2nc(Nc3cnn(CCN4CCCCC4)c3)ncc2Cl)[C@H]2C=C[C@@H]1C2.NC(=O)[C@H]1[C@@H](Nc2nc(Nc3cnn(CCN4CCCCC4)c3)ncc2Cl)[C@@H]2C=C[C@H]1C2` (mixture of isomers) [Example 36, (1S,2S,3R,4R)-3-[(5-chloro-2-{[1-(2-piperidin-1-ylethyl)-1H-pyrazol-4-yl]amino}pyrimidin-4-yl)amino]bicyclo[2.2.1]hept-5-ene-2-carboxamide and (1R,2R,3S,4S)-3-[(5-chloro-2-{[1-(2-piperidin-1-ylethyl)-1H-pyrazol-4-yl]amino}pyrimidin-4-yl)amino]bicyclo[2.2.1]hept-5-ene-2-carboxamide], the Ki at Aurora B, at Aurora A and on KDR was less than 0.1 µM each time.

As for `NC(=O)[C@@H]1[C@H](Nc2nc(Nc3cnn(CCN4CCCCC4)c3)ncc2Br)[C@H]2C=C[C@@H]1C2.NC(=O)[C@H]1[C@@H](Nc2nc(Nc3cnn(CCN4CCCCC4)c3)ncc2Br)[C@@H]2C=C[C@H]1C2` (mixture of isomers) [Example 38, (1S,2S,3R,4R)-3-[(5-bromo-2-{[1-(2-piperidin-1-ylethyl)-1H-pyrazol-4-yl]amino}pyrimidin-4-yl)amino]bicyclo[2.2.1]hept-5-ene-2-carboxamide and (1R,2R,3S,4S)-3-[(5-bromo-2-{[1-(2-piperidin-1-ylethyl)-1H-pyrazol-4-yl]amino}pyrimidin-4-yl)amino]bicyclo[2.2.1]hept-5-ene-2-carboxamide], the Ki on Aurora B, on Aurora A and on KDR was less than 0.1 µM in each case.

As for `NC(=O)[C@@H]1[C@H](Nc2nc(Nc3cnn(CCN4CCOCC4)c3)ncc2Br)[C@H]2C=C[C@@H]1C2.NC(=O)[C@H]1[C@@H](Nc2nc(Nc3cnn(CCN4CCOCC4)c3)ncc2Br)[C@@H]2C=C[C@H]1C2` (mixture of isomers) [Example 39, (1S,2S,3R,4R)-3-[(5-bromo-2-{[1-(2-morpholin-4-ylethyl)-1H-pyrazol-4-yl]amino}pyrimidin-4-yl)amino]bicyclo[2.2.1]hept-5-ene-2-carboxamide and (1R,2R,3S,4S)-3-[(5-bromo-2-{[1-(2-morpholin-4-ylethyl)-1H-pyrazol-4-yl]amino}pyrimidin-4-yl)amino]bicyclo[2.2.1]hept-5-ene-2-carboxamide], the Ki at Aurora B, on Aurora A and at KDR was less than 0.1 µM throughout.

Broadly, the Ki is a measure of affinity in units of concentration, obtained from inhibition or displacement.

The values are drawn from patent US8426408B2, “Pyrimidine inhibitors of kinases” (AbbVie Inc., priority 2009, dated 2013).
